Several values for one entry are separate records, joined by “and”; a condition that tells them apart may be missing. Equal entries are not always repeated. Inconclusive results and toxic doses are left out.
Tested on: L1210 leukemia ip in BDF1 mice, survival T/C
Assay: NCI In Vivo Anticancer Drug Screen. Data for tumor model L1210 Leukemia (intraperitoneal) in B6D2F1 (BDF1) mice
Settings: endpoint: mean survival time, higher = longer survival
Summary of the method: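 Transplanted-tumor mice were given test agent; controls received vehicle only. Survival readings from the two groups were divided (treated over control).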

[1] = dose: 100.0 mg/kg/injection, schedule: Q01DX009 (ip), vehicle: saline with Tween-80
[2] = dose: 200.0 mg/kg/injection, schedule: Q01DX009 (ip), vehicle: saline with Tween-80
[3] = dose: 400.0 mg/kg/injection, schedule: Q01DX009 (ip), vehicle: saline with Tween-80
[4] = dose: 100.0 mg/kg/injection, schedule: Q01DX001 (ip), vehicle: Klucel (hydroxypropylcellulose) (HPC)
[5] = dose: 200.0 mg/kg/injection, schedule: Q01DX001 (ip), vehicle: Klucel (hydroxypropylcellulose) (HPC)
[6] = dose: 400.0 mg/kg/injection, schedule: Q01DX001 (ip), vehicle: Klucel (hydroxypropylcellulose) (HPC)
[7] = dose: 6.25 mg/kg/injection, schedule: Q01DX009 (ip), vehicle: saline
[8] = dose: 12.5 mg/kg/injection, schedule: Q01DX009 (ip), vehicle: saline
[9] = dose: 25.0 mg/kg/injection, schedule: Q01DX009 (ip), vehicle: saline
[10] = dose: 25.0 mg/kg/injection, schedule: Q04DX003 (ip), vehicle: saline
[11] = dose: 50.0 mg/kg/injection, schedule: Q04DX003 (ip), vehicle: saline
[12] = dose: 100.0 mg/kg/injection, schedule: Q01DX009 (ip), vehicle: Klucel (hydroxypropylcellulose) (HPC)
[13] = dose: 200.0 mg/kg/injection, schedule: Q01DX009 (ip), vehicle: Klucel (hydroxypropylcellulose) (HPC)
[14] = dose: 400.0 mg/kg/injection, schedule: Q01DX009 (ip), vehicle: Klucel (hydroxypropylcellulose) (HPC)
[15] = dose: 100.0 mg/kg/injection, schedule: Q04DX003 (ip), vehicle: saline with Tween-80
[16] = dose: 50.0 mg/kg/injection, schedule: Q01DX009 (ip), vehicle: saline
[17] = dose: 100.0 mg/kg/injection, schedule: Q01DX009 (ip), vehicle: saline

## O=C(Nc1cccc(C(F)(F)F)c1)c1ccc(F)cc1
dose: 100.0 mg/kg/injection, schedule: Q04DX002 (ip), vehicle: Klucel (hydroxypropylcellulose) (HPC)
  T/C: 91 % of control
dose: 200.0 mg/kg/injection, schedule: Q04DX002 (ip), vehicle: Klucel (hydroxypropylcellulose) (HPC)
  T/C: 102 % of control
dose: 400.0 mg/kg/injection, schedule: Q04DX002 (ip), vehicle: Klucel (hydroxypropylcellulose) (HPC)
  T/C: 88 % of control

## COC(=O)C(C)CC(C)(C)[N+](=O)[O-] (centres undefined)
[1]
  T/C: 97 % of control
[2]
  T/C: 103 % of control
[3]
  T/C: 97 % of control

## CCc1ccc(/C=C/c2ccc[nH]2)[n+](C)c1
dose: 5.0 mg/kg/injection, schedule: Q01DX001 (ip), vehicle: carboxymethylcellulose (CMC)
  T/C: 94 % of control
dose: 10.0 mg/kg/injection, schedule: Q01DX001 (ip), vehicle: carboxymethylcellulose (CMC)
  T/C: 94 % of control
dose: 20.0 mg/kg/injection, schedule: Q01DX001 (ip), vehicle: carboxymethylcellulose (CMC)
  T/C: 89 % of control
dose: 40.0 mg/kg/injection, schedule: Q01DX001 (ip), vehicle: carboxymethylcellulose (CMC)
  T/C: 96 % of control
dose: 80.0 mg/kg/injection, schedule: Q01DX001 (ip), vehicle: carboxymethylcellulose (CMC)
  T/C: 91 % of control

## CCCCCCCCCCCCCCOc1ccc(Sc2ccc([N+](=O)[O-])cc2)cc1
[4]
  T/C: 106 % of control
[5]
  T/C: 90 % of control
[6]
  T/C: 89 % of control

## CNCCCC1c2ccccc2C=Cc2ccccc21
dose: 3.12 mg/kg/injection, schedule: Q01DX009 (ip), vehicle: saline
  T/C: 100 % of control
[7]
  T/C: 96 % of control
[8]
  T/C: 101 % of control
[9]
  T/C: 100 % of control
[10]
  T/C: 90 % of control
[11]
  T/C: 101 % of control

## CCCCCCCCOc1ccc(C)cc1
[12]
  T/C: 107 % of control
[13]
  T/C: 94 % of control
[14]
  T/C: 97 % of control

## CC12CCCCC1SC(F)(F)C2(F)F (centres undefined)
dose: 12.5 mg/kg/injection, schedule: Q01DX009 (ip), vehicle: saline with Tween-80
  T/C: 95 % of control
dose: 25.0 mg/kg/injection, schedule: Q01DX009 (ip), vehicle: saline with Tween-80
  T/C: 98 % of control

## O=C(c1ccccc1)C(O)c1ccccc1 (centres undefined)
[1]
  T/C: 89 % of control
[2]
  T/C: 94 % of control
[3]
  T/C: 100 % of control

## CC1CCCC(CN=Cc2cc(Cl)ccc2O)[N-]1.CC1CCCC(CN=Cc2cc(Cl)ccc2O)[N-]1.[Ni+2] (centres undefined)
[15]
  T/C: 96 % of control
dose: 200.0 mg/kg/injection, schedule: Q04DX003 (ip), vehicle: saline with Tween-80
  T/C: 90 % of control
dose: 400.0 mg/kg/injection, schedule: Q04DX003 (ip), vehicle: saline with Tween-80
  T/C: 91 % of control

## CC(Br)C(=O)NC(CC(N)=O)C(=O)O (centres undefined)
[1]
  T/C: 93 % of control
[2]
  T/C: 91 % of control

## Clc1nc(Cl)n2c(Cl)cncc12
dose: 25.0 mg/kg/injection, schedule: Q04DX003 (ip), vehicle: saline with Tween-80
  T/C: 96 % of control
dose: 50.0 mg/kg/injection, schedule: Q04DX003 (ip), vehicle: saline with Tween-80
  T/C: 103 % of control
[15]
  T/C: 96 % of control

## O=C1CCNc2cc(Cl)ccc21
[4]
  T/C: 96 % of control
[12]
  T/C: 98 % of control
[5]
  T/C: 95 % of control
[13]
  T/C: 95 % of control
[6]
  T/C: 104 % of control

## CN/C([S-])=N/N=C/C(=N/N=C(\[S-])NC)c1ccccc1.[Zn+2]
dose: 6.25 mg/kg/injection, schedule: Q04DX002 (ip), vehicle: Klucel (hydroxypropylcellulose) (HPC)
  T/C: 101 % of control
dose: 12.5 mg/kg/injection, schedule: Q04DX002 (ip), vehicle: Klucel (hydroxypropylcellulose) (HPC)
  T/C: 97 % of control

## CNP1(N(C)C)=NP(NC)(N(C)C)=NP(NC)(N(C)C)=N1 (centres undefined)
[16]
  T/C: 102 % of control
[17]
  T/C: 100 % of control
dose: 200.0 mg/kg/injection, schedule: Q01DX009 (ip), vehicle: saline
  T/C: 94 % of control

## CCN(CC)CC(C)Nc1ccc([N+](=O)[O-])c2sc3ccccc3c(=O)c12 (centres undefined)
dose: 9.0 mg/kg/injection, schedule: Q01DX Z (ip), vehicle: carboxymethylcellulose (CMC)
  T/C: 122 % of control
dose: 10.0 mg/kg/injection, schedule: Q01DX Z (ip), vehicle: other
  T/C: 107 % of control
dose: 12.0 mg/kg/injection, schedule: Q01DX Z (ip), vehicle: methylcellulose (MC)
  T/C: 108 % of control and 112 % of control
dose: 17.7 mg/kg/injection, schedule: Q01DX Z (ip), vehicle: carboxymethylcellulose (CMC)
  T/C: 108 % of control
dose: 18.0 mg/kg/injection, schedule: Q01DX Z (ip), vehicle: methylcellulose (MC)
  T/C: 110 % of control and 114 % of control
dose: 26.0 mg/kg/injection, schedule: Q01DX Z (ip), vehicle: carboxymethylcellulose (CMC)
  T/C: 122 % of control
dose: 27.0 mg/kg/injection, schedule: Q01DX Z (ip), vehicle: carboxymethylcellulose (CMC)
  T/C: 122 % of control
dose: 40.0 mg/kg/injection, schedule: Q01DX Z (ip), vehicle: carboxymethylcellulose (CMC)
  T/C: 175 % of control
dose: 41.0 mg/kg/injection, schedule: Q01DX Z (ip), vehicle: carboxymethylcellulose (CMC)
  T/C: 169 % of control
dose: 80.0 mg/kg/injection, schedule: Q01DX Z (ip), vehicle: carboxymethylcellulose (CMC)
  T/C: 170 % of control
dose: 90.0 mg/kg/injection, schedule: Q01DX Z (ip), vehicle: other
  T/C: 171 % of control
dose: 250.0 mg/kg/injection, schedule: Q## X000 (other), vehicle: carboxymethylcellulose (CMC)
  T/C: 158 % of control
dose: 270.0 mg/kg/injection, schedule: Q01DX Z (ip), vehicle: other
  T/C: 97 % of control

## CCOC(=O)C(Cc1ccc(N(CCCl)CCCl)cc1)NP1(=O)NCCCO1 (centres undefined)
dose: 2.0 mg/kg/injection, schedule: Q01DX015 (ip), vehicle: carboxymethylcellulose (CMC)
  T/C: 123 % of control
dose: 14.0 mg/kg/injection, schedule: Q01DX015 (ip), vehicle: carboxymethylcellulose (CMC)
  T/C: 92 % of control
dose: 18.0 mg/kg/injection, schedule: Q01DX015 (ip), vehicle: other
  T/C: 167 % of control
dose: 28.14 mg/kg/injection, schedule: Q01DX015 (ip), vehicle: carboxymethylcellulose (CMC)
  T/C: 117 % of control
dose: 30.0 mg/kg/injection, schedule: Q01DX015 (ip), vehicle: other
  T/C: 156 % of control
dose: 48.0 mg/kg/injection, schedule: Q01DX015 (ip), vehicle: carboxymethylcellulose (CMC)
  T/C: 94 % of control
dose: 50.0 mg/kg/injection, schedule: Q01DX015 (ip), vehicle: other
  T/C: 109 % of control
dose: 100.0 mg/kg/injection, schedule: Q01DX001 (ip), vehicle: carboxymethylcellulose (CMC)
  T/C: 111 % of control
dose: 100.0 mg/kg/injection, schedule: Q01DX001 (ip), vehicle: other
  T/C: 160 % of control
dose: 400.0 mg/kg/injection, schedule: Q01DX001 (ip), vehicle: carboxymethylcellulose (CMC)
  T/C: 115 % of control

## CN(C)CCCN1Cc2ccccc2Cc2ccccc21
[7]
  T/C: 106 % of control
[8]
  T/C: 88 % of control
[9]
  T/C: 97 % of control
[10]
  T/C: 97 % of control
[16]
  T/C: 104 % of control
[11]
  T/C: 108 % of control
[17]
  T/C: 100 % of control
dose: 100.0 mg/kg/injection, schedule: Q04DX003 (ip), vehicle: saline
  T/C: 108 % of control

## Cc1ccc(S(=O)(=O)OCC23CCC2(COS(=O)(=O)c2ccc(C)cc2)COC3)cc1 (centres undefined)
dose: 75.0 mg/kg/injection, schedule: Q01DX001 (ip), vehicle: saline
  T/C: 96 % of control
dose: 75.0 mg/kg/injection, schedule: Q01DX009 (ip), vehicle: saline
  T/C: 94 % of control
dose: 150.0 mg/kg/injection, schedule: Q01DX001 (ip), vehicle: saline
  T/C: 93 % of control
dose: 300.0 mg/kg/injection, schedule: Q01DX001 (ip), vehicle: saline
  T/C: 95 % of control
dose: 300.0 mg/kg/injection, schedule: Q01DX009 (ip), vehicle: saline
  T/C: 89 % of control

## COC(=O)/C=C/c1ccc(Cl)cc1
[12]
  T/C: 98 % of control
[13]
  T/C: 96 % of control
[14]
  T/C: 96 % of control

## COc1cc2c(c(OC)c1OC)-c1ccc(OC)c(=O)cc1[C@@H](NC=O)CC2
dose: 0.35 mg/kg/injection, schedule: Q01DX015 (ip), vehicle: carboxymethylcellulose (CMC)
  T/C: 118 % of control
dose: 0.5 mg/kg/injection, schedule: Q01DX009 (ip), vehicle: Klucel (hydroxypropylcellulose) (HPC)
  T/C: 122 % of control
dose: 0.7 mg/kg/injection, schedule: Q01DX015 (ip), vehicle: carboxymethylcellulose (CMC)
  T/C: 112 % of control
dose: 3.0 mg/kg/injection, schedule: Q01DX015 (ip), vehicle: carboxymethylcellulose (CMC)
  T/C: 90 % of control
